{
  "source": "patent US20210163929A1",
  "about": "“METHODS AND COMPOSITIONS FOR THE TREATMENT OF HEPATIC AND METABOLIC DISEASES” (The Regents of the University of California, priority 2018, published 2021)",
  "key": {"miR-22 in HCT116 cells [1]": {"tested_on": "miR-22 in HCT116 cells", "assay": "miR-22 induction in HCT116 cells treated with bile acids or HDAC inhibitors", "type": "cell-based, human"}, "[2]": {"tested_on": "Western diet-induced obese C57BL/6 male mice", "assay": "WD-induced obese mice treated with OCA, miR-22 inhibitors or both for 3 weeks", "type": "in vivo, mouse", "experimental": "Mice: C57BL/6 wild-type (WT) male mice (Charles River Laboratories, Inc., Wilmington, Mass., USA) were housed in regular filter-top cages at 22° C. with a 12 h/12 h light/dark cycle. For Western diet (WD)-induced obesity models, mice were fed a WD (21% fat, 34% sucrose, and 0.2% cholesterol, w/w) or control diet (CD 5% fat, 12% sucrose, and 0.01% cholesterol, w/w; Harlan Teklad, Indianapolis, Ind., USA) after weaning (3 weeks). When those mice were 7-months old, WD-fed mice were randomly assigned to […] and received vehicle (0.5% carboxyl methyl cellulose sodium), OCA ([…], daily, oral gavage), miR-22 inhibitors (1×10^9 PFU, tail vein injection, once a week), and the combination of OCA and miR-22 inhibitors for three weeks. For alcohol-induced steatosis models, 3-month-old C57BL/6 male mice were initially fed a control Lieber-DeCarli diet (F1259SP, Bio-Serv, Flemington, N.J., USA) ad libitum for 5 days followed by 5% alcohol supplementation for 21 days (F1258SP, Bio-Serv). Then, those alcohol-fed mice received adenovirus (negative control) or miR-22 inhibitors (1×10^9 PFU, tail vein injection, 3 times in 10 days). All the mice were euthanized 1 day after the last viral injection. Animal experiments were conducted in accordance with the National Institutes of Health Guide for the Care and Use of Laboratory Animals under protocols approved by the Institutional Animal Care and Use Committee of the University of California, Davis.\nBiochemical analysis: Hepatic triglyceride and cholesterol (BioAssay Systems, Hayward, Calif., USA) levels and serum lipopolysaccharide (LPS) (Thermo Fisher Scientific), alanine transaminase (ALT) (Pointe Scientific), and alkaline phosphatase (ALP) (Pointe Scientific) levels were quantified according to the manufacturer's instructions.\nInsulin tolerance test: After 6 h food deprivation, tail vein blood was used to establish fasting blood glucose levels. For insulin tolerance testing, insulin (1 U/kg body weight, i.p.; MilliporeSigma, Burlington, Mass., USA) was given followed by measuring blood glucose level at various times with the OneTouch Ultra 2 (Johnson & Johnson Co., New Brunswick, N.J., USA). The area under the curve (AUC) of the blood glucose levels over time was calculated.\nSerum FGF21 and glucagon-like peptide (GLP-1) secretion assay: Serum FGF21 levels were quantified by ELISA (Boster Biological Technology, Pleasanton, Calif., USA). For GLP-1 secretion assays, mice were unfed for 12 h followed by orally administration of dipeptidyl peptidase-4 inhibitor, sitagliptin ([…]; TSZ Chem, Framingham, Mass., USA) and a liquid diet (Ensure Plus, […]; Ross Laboratories, Columbus, Ohio, USA), which contains 15% protein, 57% carbohydrate, and 28% fat to stimulate GLP-1 secretion, as previously described (25). Blood samples were collected immediately (time 0) as well as 15, and 30 min after Ensure Plus feeding. Serum GLP-1 was quantified by a ELISA kit (RayBiotech Life, Norcross, Ga., USA)."}, "[3]": {"tested_on": "hepatic inflammation and fibrosis", "settings": "30 mg/kg/day, gavage, every 2 days for 4 weeks; cited from earlier work"}, "[4]": {"tested_on": "FGF21 signaling and miR-22 in Huh7 cells", "assay": "mRNA and protein levels in Huh7 cells treated with OCA/INT-747, CDCA, butyrate or RA plus butyrate", "type": "cell-based, human", "settings": "for mRNA and protein levels of FGF21, FGFR1 and PGC1α: OCA 5 or 20 μM", "experimental": "(§1) Cell culture: Huh7 cells were obtained from Japanese Collection of Research Bioresources and maintained in DMEM with 10% FBS. Cells were treated with DMSO, OCA (5 or 20 μM; Apexbio Technology LLC, Houston, Tex., USA) in serum-free media for indicated time. Cells were plated (1×10^6 cells per 60-mm dish, 2×10^5 cells per 6-well plates, and 1×10^5 cells per 24-well plates) overnight prior to treatment or infection.\nGene expression quantification: Total RNA was extracted using TRIzol Reagent (Thermo Fisher Scientific, Waltham, Mass., USA), and cDNA was generated using High Capacity RNA-to-cDNA Kit (Applied Biosysterms, Carlsbad, Calif., USA). qRT-PCR was performed on ABI 7900HT Fast Real-time PCR system using Power SYBR® Green PCR Master Mix (Applied Biosysterms).\n(§2) Western blot: Western blot was performed as described previously (26). Antibodies used were anti-FGFR1, FGF21, FASN, phosphor (P)-AMPK, total (T)-AMPK, phosphor (P)-ERK1/2, and total (T)-ERK1/2 (Cell Signaling Technology, Beverly, Mass., USA), β-ACTIN (MilliporeSigma), CD36 (Bioss Antibodies Inc., Woburn, Mass., USA), CYCLIN A2, PGC1α (Novus Biologicals, LLC, Littleton, Colo., USA), and PPARα (Santa Cruz Biotechnology, Santa Cruz, Calif., USA)."}, "[5]": {"tested_on": "FGF21 signaling in Huh7 cells", "assay": "Huh7 cells infected/transfected with miR-22 or miR-22 inhibitors, mRNA and Western blot", "type": "cell-based, human", "settings": "adenovirus control or miR-22 inhibitors followed by DMSO or OCA 5 μM for 6 h", "excerpt": "However, miR-22 was induced in the livers and adipose tissues of WD-fed mice (FIG. 15B). Similarly, using human liver biopsy specimens, miR-22 levels were positively associated with hepatic fat content and inversely correlated with the mRNA levels of PGC-1α, a key regulator of mitochondrial biogenesis (FIG. 15C). […] To study the downstream effects of miR-22, miR-22 mimics (ID: MIMAT0000077, […] (SEQ ID NO:2), Applied Biological Materials Inc.) were used to transfect human liver Huh7 cells.\nas §1\nConstructs and luciferase reporter assay: The 3′ untranslated region (3′-UTR) of the FGFR1 gene containing the putative binding site for miR-22 and the entire 3′-UTR of the FGF21 gene (105 bp) was cloned into the psiCHECK2 vector (Promega, Madison, Wis., USA) using NotI and XhoI. For cell infection, adenovirus (negative control), adenoviral-delivered miR-22 (miR-22), or adenoviral-miR-22 inhibitors (SEQ ID NO:1; Applied Biological Materials Inc., Richmond, BC) were used. Forty-eight h post infection, cells were transfected with psiCHECK2-FGR1-3′UTR or psiCHECK2-FGF21 3′UTR using Lipofectamine 2000 (Thermo Fisher Scientific). Twenty-four h later, cells were harvested for firefly and Renilla luciferase assay using the Dual-luciferase Reporter system (Promega). Renilla luciferase activity was standardized to firefly luciferase activity.\nas §2"}, "[6]": {"tested_on": "patients with NASH and T2DM", "settings": "cited from earlier work"}, "miR-22 in HCT116 cells [7]": {"tested_on": "miR-22 in HCT116 cells", "assay": "miR-22 induction in HCT116 cells treated with bile acids or HDAC inhibitors", "type": "cell-based, human", "experimental": "A time course study in which HCT116 cells were treated by 150 μM CDCA for indicated times. […] Data are presented as mean+/−S.D. * denotes p<0.05.\nData are shown as mean+/−S.D. * p<0.05; ** p<0.01; ***p<0.001.\nOCA is a semi-synthetic bile acid, which as the structure of 6α-ethyl-chenodeoxycholic acid.", "remark": "listed apart in the source"}, "[8]": {"settings": "1-day treatment, SAHA (5, butyrate 5 mM, propionate 10 mM, valerate 10 mM)"}},
  "note": "“Also recorded” adds a separate entry of the source.",
  "data": [
    {"smiles": "CCCCC(=O)O", "note": "[valerate]", "values": [
      {"measurement": "miR-22 level", "setting": "miR-22 in HCT116 cells [1]; [8]", "value": "induced miR-22"}
    ]},
    {"smiles": "CC(=O)O", "note": "[acetate]", "values": [
      {"measurement": "miR-22 level", "setting": "miR-22 in HCT116 cells [1]; [8]", "value": "not able to induce miR-22"}
    ]},
    {"smiles": "CC[C@H]1[C@@H](O)[C@@H]2[C@H](CC[C@]3(C)[C@@H]([C@H](C)CCC(=O)O)CC[C@@H]23)[C@@]2(C)CC[C@@H](O)C[C@@H]12", "note": "[OCA, obeticholic acid]", "values": [
      {"measurement": "miR-22 level", "setting": "miR-22 in HCT116 cells [1]; 24 hours, CDCA 50, 100, 150 μM, OCA 25 and 50 μM", "value": "induced miR-22"},
      {"measurement": "hepatic fat accumulation (steatosis score)", "setting": "[2]; WD-fed 7-month-old mice, 3 weeks, OCA 10 mg/g body weight daily oral gavage, miR-22 inhibitors 1×10^9 PFU once a week", "value": "reduced hepatic fat accumulation"},
      {"measurement": "hepatic cholesterol level", "setting": "[2]; WD-fed mice, 3 weeks treatment", "value": "reduced hepatic cholesterol level"},
      {"measurement": "hepatic triglyceride levels", "setting": "[2]; WD-fed mice, 3 weeks treatment", "value": "did not significantly reduce hepatic triglyceride levels"},
      {"measurement": "release of GLP-1 (serum)", "setting": "[2]; WD-fed mice, 3 weeks treatment", "value": "stimulated the release of GLP-1"},
      {"measurement": "serum FGF21 level", "setting": "[2]; WD-fed mice, 3 weeks treatment", "value": "reduced"},
      {"measurement": "hepatic FASN and CD36", "setting": "[2]; diet-induced obese mice", "value": "reduced FASN and CD36"},
      {"measurement": "hepatic FGF21 and FGFR1", "setting": "[2]; diet-induced obese mice", "value": "induced hepatic FGF21 and FGFR1"},
      {"measurement": "expression of hepatic Pepck, G6pase, and Fbp1", "setting": "[2]; reduced by WD intake", "value": "reversed those reductions"},
      {"measurement": "hepatic inflammation and fibrosis", "setting": "[3]", "value": "reduces hepatic inflammation and fibrosis"},
      {"measurement": "miR-22 level", "setting": "[4]; 6 h", "value": "induced miR-22"},
      {"measurement": "AMPK and ERK1/2 activation", "setting": "[4]; 6 hours", "value": "activated AMPK and ERK1/2"},
      {"measurement": "βKlotho protein level", "setting": "[4]; 6 hours", "value": "modestly increased"},
      {"measurement": "mRNA and protein levels of FGF21, FGFR1 and PGC1α", "setting": "[4]; 6 hours", "value": "induced FGF21 signaling by increasing the expression of FGF21, FGF21 receptor (FGFR1), and PGC1α; also recorded: increased mRNA and protein levels of FGF21 and FGFR1 as well as PGC1α"},
      {"measurement": "mRNA and protein levels of FGF21, FGFR1 and PGC1α", "setting": "[4]; 6 hours, listed as INT-747", "value": "markedly increased the mRNA and protein level of FGF21 and FGFR1"},
      {"measurement": "FGF21, FGFR1, P-AMPK, and P-ERK1/2 protein levels", "setting": "[5]", "value": "same effects in increasing FGF21, FGFR1, P-AMPK, and P-ERK1/2"},
      {"measurement": "patients with fibrosis having ≥1 stage of fibrosis improvement", "setting": "[6]; clinical trials, 19% in the placebo group, p<0.05", "value": 41, "unit": "%"},
      {"measurement": "patients reaching the primary endpoint of a ≥2-point improvement in NAFLD activity score without worsening fibrosis", "setting": "[6]; clinical trials, 21% in the placebo group, p<0.01", "value": 57, "unit": "%"},
      {"measurement": "insulin sensitivity", "setting": "[6]; clinical trials", "value": "improves insulin sensitivity"},
      {"measurement": "markers of liver inflammation and fibrosis", "setting": "[6]; clinical trials", "value": "reduced markers of liver inflammation and fibrosis"},
      {"measurement": "deaths and liver injury", "setting": "[6]; overdose", "value": "caused deaths and liver injury"},
      {"measurement": "CCNA2 expression", "setting": "miR-22 in HCT116 cells [7]", "value": "reduced CCNA2"},
      {"measurement": "FXR target FGF19 expression", "setting": "miR-22 in HCT116 cells [7]", "value": "induced FXR target FGF19"}
    ]},
    {"smiles": "CCC(=O)O", "note": "[propionate]", "values": [
      {"measurement": "miR-22 level", "setting": "miR-22 in HCT116 cells [1]; [8]", "value": "induced miR-22"}
    ]},
    {"smiles": "O=CO", "note": "[formate]", "values": [
      {"measurement": "miR-22 level", "setting": "miR-22 in HCT116 cells [1]; [8]", "value": "not able to induce miR-22"}
    ]},
    {"smiles": "O=C(CCCCCCC(=O)Nc1ccccc1)NO", "note": "[SAHA, suberanilohydroxamic acid]", "values": [
      {"measurement": "miR-22 level", "setting": "miR-22 in HCT116 cells [1]; [8]", "value": "induced miR-22"}
    ]}
  ]
}
